In patent US20250388605A1, “HETEROBIFUNCTIONAL COMPOUNDS AND METHODS OF TREATING DISEASE” (Halda Therapeutics OpCo, Inc., priority 2022, published 2025):

Key:
[1] = molecular target: T1, BRD4-BD2 (Homo sapiens, UniProt O60885); assay: Binding affinity to BRD4-BD2 (bromoKdELECT assay); details: 11-point 3-fold dilution series
T1 construct: made in house; host or cells: T7 phage grown in an E. coli host derived from the BL21 strain

[2] = molecular target: T2, BRD4-BD1 (Homo sapiens, UniProt O60885); assay: Binding affinity to BRD4-BD1 (bromoKdELECT assay); details: 11-point 3-fold dilution series
T2 construct: made in house; host or cells: T7 phage grown in an E. coli host derived from the BL21 strain

[3] = tested on: VCaP cells; assay: Cellular growth inhibition assay for VCaP cells, CellTiter-Glo; type: cell-based, human; details: Homo sapiens, 72 hours
How it was run: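 GI50 values come from four-parameter curve fits of luminescence data normalized to a zero baseline. Compound, in medium with 0.5% DMSO, was added one day after plating and left for 72 h before CellTiter-Glo 2.0 addition.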

| SMILES | Kd [1] [nM] | Kd [2] [nM] | GI50 [3] [nM] |
| --- | --- | --- | --- |
| CC(C)c1ccc(Oc2cccc(OCCN3CCN(c4ncc(C(=O)NC5C(C)(C)C(Oc6ccc(C#N)c(Cl)c6)C5(C)C)cn4)CC3)c2)c(-c2cn(C)c(=O)c3[nH]ccc23)c1 (stereo not drawn) [Compound I-107, N-[3-(3-chloro-4-cyano-phenoxy)-2,2,4,4-tetramethyl-cyclobutyl]-2-[4-[2-[3-[4-isopropyl-2-(6-methyl-7-oxo-1H-pyrrolo[2,3-c]pyridin-4-yl)phenoxy]phenoxy]ethyl]piperazin-1-yl]pyrimidine-5-carboxamide] | 50 to 500 | 50 to 500 | > 3000 |
| CCS(=O)(=O)Nc1ccc(Oc2cccc(N3CC(OC4CCN(c5ncc(C(=O)N[C@H]6C(C)(C)[C@H](Oc7ccc(C#N)c(Cl)c7)C6(C)C)cn5)CC4)C3)c2)c(-c2cn(C)c(=O)c3[nH]ccc23)c1 [Compound I-80] | 50 to 500 | 50 to 500 | < 500 |
| Cn1cc(-c2cc(C(C)(C)O)ccc2Oc2cccc(OCCN3CCN(c4ncc(C(=O)N[C@H]5C(C)(C)[C@H](Oc6ccc(C#N)c(Cl)c6)C5(C)C)cn4)CC3)c2)c2cc[nH]c2c1=O [Compound I-96] | 50 to 500 | 500 to 2500 | < 500 |
| CN(c1ccc(Oc2ccc(C(C)(C)O)cc2-c2cn(C)c(=O)c3[nH]ccc23)cc1)C1CCN(c2ncc(C(=O)N[C@H]3C(C)(C)[C@H](Oc4ccc(C#N)c(Cl)c4)C3(C)C)cn2)CC1 [Compound I-197] | < 50 | 50 to 500 | < 500 |

Continued, values first:

| Kd [1] [nM] | Kd [2] [nM] | GI50 [3] [nM] | SMILES |
| --- | --- | --- | --- |
| > 2500 | > 2500 | < 500 | Cn1cc(-c2ccccc2Oc2cccc(OCCOC3CCN(c4ncc(C(=O)N[C@H]5C(C)(C)[C@H](Oc6ccc(C#N)c(Cl)c6)C5(C)C)cn4)CC3)c2)c2cc[nH]c2c1=O [Compound I-61, N-((1r, 3r)-3-(3-chloro-4-cyanophenoxy)-2,2,4,4-tetramethylcyclobutyl)-2-(4-(2-(3-(2-(6-methyl-7-oxo-6,7-dihydro-1H-pyrrolo[2,3-c]pyridin-4-yl)phenoxy)phenoxy)ethoxy)piperidin-1-yl)pyrimidine-5-carboxamide] |
| > 2500 | > 2500 | > 3000 | Cc1ccc(CCCOC2CCN(c3ncc(C(=O)N[C@H]4C(C)(C)[C@H](Oc5ccc(C#N)c(Cl)c5)C4(C)C)cn3)CC2)c(C)c1Oc1ccc(C(C)(C)O)cc1-c1cn(C)c(=O)c2[nH]ccc12 [Compound I-195] |
| 50 to 500 | > 2500 | 500 to 1500 | Cc1ccc(CCCOC2CCN(c3ncc(C(=O)N[C@H]4C(C)(C)[C@H](Oc5ccc(C#N)c(Cl)c5)C4(C)C)cn3)CC2)cc1Oc1ccc(C(C)(C)O)cc1-c1cn(C)c(=O)c2[nH]ccc12 [Compound I-192] |
